Measured values from US20220041578A1, “ISOINDOLINE COMPOUND, AND PREPARATION METHOD, PHARMACEUTICAL COMPOSITION, AND APPLICATION OF ISOINDOLINE COMPOUND” (Shanghai Institute of Meteria Medica, Chinese Academy of …, priority 2018, published 2022).
pIC50: −log10 of the molar value.

Tests used:
MM.1S cells = assay: Effect of the compound on the proliferation of MM.1S cells (MTS); type: cell-based; settings: Homo sapiens, MM1.S, 168 h, 7 days, read-out: Cell inhibitory activity (IC50)
Summary of the method: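 In 1640 medium + 10% FBS, 20,000 cells per well were treated with 5-fold compound dilutions at 0.2% DMSO for 7 days at 37° C., 5% CO2. MTS was read after 3–4 h as OD490−OD690, inhibition was calculated against DMSO and blank wells, and IC50 was fitted; three independent experiments were run.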

Mino cells = assay: Effect of the compound on the proliferation of Mino cells (MTS); type: cell-based; settings: Homo sapiens, 72 h, 3 days, read-out: Inhibitory activity (IC50)
Procedure: Mino cells were cultured with 1640 plus […] and collected. The cell concentration was diluted according to the action time of 3 days, and 90 ul cell suspension was added to each well of the 96-well cell plate to make the cell count to be 8000. 10 ul of DMSO with a final concentration of 0.2% was added to the control cell wells. The compound was diluted 5-fold with the 10 mM stock solution, and 10 ul was also added to the compound cell wells (the final concentration of DMSO was 0.2%). The cells were placed in a 37° C., […] incubator and incubated for 3 days. After preparing the reaction solution according to the MTS kit (Promega, G5430), 20 μL was added to each well, incubated in a 37° C., 5% CO2 incubator for 3-4 h. Read the 490 nm absorbance value with a microtiter plate, and used the 690 nm absorbance value as the background value and OD490-OD690 as the final initial data. The formula for calculating the inhibition rate of the compound was: inhibition rate=(OD DMSO-ODcompound)/(ODDMSO-Oblank)×100%. The compound's proliferation inhibition IC50 was fitted by Graph Pad Prism 5.0. The experiment was repeated three times, and three parallel experiments were used to calculate the average and standard deviation each time.

CRBN = target: T1, CRBN (Homo sapiens, UniProt Q96SW2); assay: Verification of interaction between compound and CRBN (elution from thalidomide FG beads, Western blotting); type: binding; design: dose or concentration left out as unconfirmed; settings: Mino cell lysate, 25° C., 15 minutes, Western blotting with CRBN antibody
T1 construct: lyse the blood tumor Mino cells, and centrifuged to obtain a clear cell lysate; endogenous in cells; host or cells: Mino cells (mantle cell lymphoma), lysate
T1 sequence (Q96SW2 whole entry): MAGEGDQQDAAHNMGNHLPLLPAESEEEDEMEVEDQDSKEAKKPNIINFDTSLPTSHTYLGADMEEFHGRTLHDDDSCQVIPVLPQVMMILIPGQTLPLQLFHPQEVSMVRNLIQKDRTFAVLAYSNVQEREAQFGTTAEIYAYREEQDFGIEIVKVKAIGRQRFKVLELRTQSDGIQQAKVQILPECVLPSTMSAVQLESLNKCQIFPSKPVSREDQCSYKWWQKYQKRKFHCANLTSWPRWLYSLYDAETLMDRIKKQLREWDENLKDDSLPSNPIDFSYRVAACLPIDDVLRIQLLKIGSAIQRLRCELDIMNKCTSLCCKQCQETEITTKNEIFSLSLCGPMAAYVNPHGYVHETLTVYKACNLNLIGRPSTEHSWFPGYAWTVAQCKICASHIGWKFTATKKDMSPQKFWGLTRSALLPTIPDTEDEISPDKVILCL
From the text: Studies have shown that lenalidomide immunomodulators in hematological tumor cell lines regulate the activity of CRBN-ubiquitin ligase complex by binding to CRBN, selectively induce ubiquitination and degradation of transcription factors IKZF1 and IKZF3, thereby achieving the role of treating malignant hematological tumors (Science, 2014, 343, 301; Science, 2014, 343, 305; Nature, 2015, 523, 183). By using high-efficiency affinity magnetic nanoparticles “FG beads”, thalidomide analogues were pre-attached to the magnetic beads, and the thalidomide FG beads could catch CRBN protein (Leukemia, 2012, 26, 2326; Science, 2010, 327, 1345). In this experiment, NP-400 cell lysate was used to lyse the blood tumor Mino cells, and centrifuged to obtain a clear cell lysate and divided it into three samples evenly. Thalidomide FG beads were added to the three samples, and the Thalidomide FG beads and the cell lysate were combined and incubated at 4° C. for 6 hours. After the incubation was completed, separated the magnetic beads with a magnetic stand, resuspended the separation with NP-400 lysate, repeated 3 times to obtain magnetic beads removed excess cell lysate. […] The eluate was denatured by heating with SDS Loading Buffer, and the amount of CRBN in each sample was detected by Western blotting with CRBN antibody (Proteintech).

pIC50 (MM.1S cells): > 6.82
Compound: O=C1CCC(N2Cc3c(OCc4cn(-c5ccc(OC(F)(F)F)cc5)nn4)cccc3C2=O)C(=O)N1 (stereo not drawn) [Compound 17]
pIC50 (Mino cells): > 6.82 | Elution of CRBN from thalidomide FG beads (CRBN): can elute CRBN from the magnetic beads bound to thalidomide
